According to patent US20080167314A1, “Condensed Imidazole Compound And Use Thereof” (priority 2004, published 2008):

How the values were obtained:
[1] = system: MMP-13 production in human normal articular chondrocytes; assay: Measurement of MMP-13 production inhibitory activity in rhIL-1β-stimulated human normal articular chondrocytes (ELISA); type: cell-based; conditions: Chondrocyte, rhIL-1β 0.1 ng/mL, 24 hr, MMP-13 in culture supernatant by ELISA
Method: Measurement of MMP-13 Production Inhibitory Activity
Human normal articular chondrocytes (Camblex) were grown in a chondrocyte growth medium (CGM: Camblex), and the cells were suspended in a chondrocyte differentiation medium (CDM: Camblex) and plated on a 96 well plate at 2×10^4 cells/well (150 μL/well). After culturing for 3 days under 37° C., 5% CO2 conditions, the culture medium was exchanged to 0.1% BSA added α-modification of Eagle's (α-MEM: Gibco), and the cells were cultured for 4 hr. The compound was added thereto and, after culture for 1 hr, recombinant human IL-1β (rhIL-1β: R&D systems) was added at 0.1 ng/mL. After culture for 24 hr, the culture supernatant was recovered, and the concentration of MMP-13 in the culture supernatant was measured by the ELISA method (Amersham).

[2] = system: TNF-α production in THP-1 cells; assay: Measurement of TNF-α production inhibitory activity in LPS-stimulated THP-1 cells (ELISA); type: cell-based; conditions: Homo sapiens, LPS 5 μg/mL, 4 hours, TNF-α in supernatant by ELISA
Method: Measurement of TNF-α Production Inhibitory Activity
After THP-1 cells which had been cultured in PRMI 1640 medium (manufactured by Life Technologies, Inc.) containing 1% non-activated bovine fetal serum (manufactured by Life Technologies, Inc., U.S.A.) and 10 mM HEPES (pH 7.5) was plated on a 96-well plate to 1×10^5 cells/well, 1 μL test compound dissolved in DMSO was added to there. After incubation at 37° C. for 1 hour in a CO2 incubator, LPS (Wako Pure Chemicals) was added to the final concentration 5 μg/mL. After cultured at 37° C. for 4 hours in a CO2 incubator, the supernatant was obtained by centrifugation. The concentration of TNF-α in the supernatant was measured with ELISA (R&D System, Quantikine Kit). The concentration (IC50 value) necessary for inhibiting TNF-α production by 50% was calculated by PRIMS 2.01 (Graphpad Software).

[3] = biological target: T1, active form p38 MAP kinase (Homo sapiens, UniProt Q16539); assay: Measurement of the p38 MAP kinase inhibitory activity (32P uptake into Myelin Basic Protein); type: biochemical; conditions: 260 ng active form p38 MAP kinase, 1 μg Myelin Basic Protein, 2.5 μM ATP solution, 30° C. for 60 minutes
T1 construct: made in house; host or cells: Sf-21 insect cells, baculovirus BAC-HP38 co-infected with BAC-caMKK3
T1 sequence (Q16539 whole entry): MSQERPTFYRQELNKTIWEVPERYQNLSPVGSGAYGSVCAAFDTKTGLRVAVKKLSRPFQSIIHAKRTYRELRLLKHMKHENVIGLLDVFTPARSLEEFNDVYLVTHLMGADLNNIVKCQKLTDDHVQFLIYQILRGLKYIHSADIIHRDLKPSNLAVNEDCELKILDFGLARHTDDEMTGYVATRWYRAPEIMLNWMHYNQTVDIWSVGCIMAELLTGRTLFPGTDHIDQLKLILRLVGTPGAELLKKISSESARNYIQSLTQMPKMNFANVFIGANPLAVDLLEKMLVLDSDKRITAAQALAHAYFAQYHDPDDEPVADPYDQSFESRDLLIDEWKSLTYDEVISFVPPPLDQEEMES
Method: (1) Cloning of Human p38 MAP Kinase Gene and Preparation of Recombinant Baculovirus
Cloning of human p38 MAP kinase gene was performed by a PCR method using a primer set P38-U:
(3) Preparation of Active Form p38 MAP Kinase
The Sf-21 cells were seeded on 100 ml Sf-900II SFM medium (GIBCOBRL) to 1×10^6 cells/mL and cultured at 27° C. for 24 hours. After each 0.2 mL of the virusstock BAC-HP38 of recombinant Baculovirus and BAC-caMKK3 were added, the culturing was further performed for 48 hours. After the cells were separated from the culturing solution by centrifugation (3000 rpm, 10 min), the cells were washed twice with PBS. After the cells were suspended in 10 ml Lysis buffer (25 mM HEPES (pH 7.5), 1% Triton X, 130 mM NaCl, 1 mM EDTA, 1 mM DTT, 25 mM β-glycerophosphate, […], 1 mM APMSF, 1 mM Sodium orthovanadate), the cells were lysed by treating twice with a homogenizer (POLYTRON) at 20000 rpm for 2 minutes. By using Anti-FLAG M2 Affinity Gel (Eastman Chemical), active form p38 MAP kinase was purified from the supernatant obtained by centrifugation (40000 rpm, 45 minutes).
(4) Measurement of the p38 MAP Kinase Inhibitory Activity
2.5 μL of a test compound dissolved in DMSO was added to 37.5 μL reaction solution (25 mM HEPES (pH 7.5), 10 mM Magnesium Acetate) containing 260 ng active form p38 MAP kinase and 1 μg Myelin Basic Protein, which was maintained at 30° C. for 5 minutes. The reaction was initiated by adding 10 μL ATP solution (2.5 μM ATP, 0.1 μCi [g-^32P]ATP). After the reaction was performed at 30° C. for 60 minutes, the reaction was stopped by adding 50 μL 20% TCA solution. After the reaction solution was allowed to stand at 0° C. for 20 minutes, an acid insoluble fraction was transferred to GF/C filter (Packard Japan) using Cell Harvester (Packard Japan) and washed with 250 mM H3PO4. After drying at 45° C. for 60 minutes, […] Microscint 0 (Packard Japan) was added and the radioactivity was measured with a TopCount (Packard Japan). The concentration (IC50 value) necessary for inhibiting uptake of ^32P into an acid insoluble fraction by 50% was calculated with PRISM 2.01 (Graphpad Software).

| IC50 [2] | IC50 [3] | SMILES | IC50 [1] |
| --- | --- | --- | --- |
| 0.33 µM | 0.022 µM | Cc1cccc(-c2nc3cccnn3c2-c2ccnc(NC(=O)Nc3ccccc3)c2)c1 [Example 26, N-{4-[2-(3-Methylphenyl)imidazo[1,2-b]pyridazin-3-yl]pyridin-2-yl}-N′-phenylurea] | 0.077 µM |
| 0.0095 µM | 0.0087 µM | Cc1cc(-c2nc3cccnn3c2-c2ccnc(NC(=O)C3CC3)c2)ccc1F [Example 42-3, N-{4-[2-(4-fluoro-3-methylphenyl)imidazo[1,2-b]pyridazin-3-yl]pyridin-2-yl}cyclopropanecarboxamide] | 0.035 µM |
| 0.015 µM | 0.0081 µM | Cc1cc(-c2nc3cccnn3c2-c2ccnc(NC(=O)c3ccc(F)cc3)c2)ccc1F [Example 41-1, 4-fluoro-N-{4-[2-(4-fluoro-3-methylphenyl)imidazo[1,2-b]pyridazin-3-yl]pyridin-2-yl}benzamide] | 0.035 µM |
| 0.045 µM | 0.0079 µM | CCNC(=O)Nc1cc(-c2c(-c3ccc(F)c(C)c3)nc3cccnn23)ccn1 [Example compound 28-3, N-ethyl-N′-{4-[2-(4-fluoro-3-methylphenyl)imidazo[1,2-b]pyridazin-3-yl]pyridin-2-yl}urea] | 0.57 µM |
| 0.12 µM | 0.023 µM | CC(=O)Nc1cc(-c2c(-c3cccc(C)c3)nc3ccc(Cl)nn23)ccn1 [Example 17, N-{4-[6-Chloro-2-(3-methylphenyl)imidazo[1,2-b]pyridazin-3-yl]pyridin-2-yl}acetamide] | 0.22 µM |
| 0.018 µM |  | Cc1cccc(-c2nc3cccnn3c2-c2ccnc(NC(=O)c3ccccc3)c2)c1 [Example 19, N-{4-[2-(3-Methylphenyl)imidazo[1,2-b]pyridazin-3-yl]pyridin-2-yl}benzamide] | 0.073 µM |
| 0.001 µM | 0.0049 µM | Cc1cc(-c2nc3cccnn3c2-c2ccnc(NC(=O)NCCC#N)c2)ccc1F [Example 51-14, N-(2-cyanoethyl)-N′-{4-[2-(4-fluoro-3-methylphenyl)imidazo[1,2-b]pyridazin-3-yl]pyridin-2-yl}urea] | 0.032 µM |
| 0.0029 µM |  | Cc1cc(-c2nc3cccnn3c2-c2ccnc(NC(=O)c3cccnc3)c2)ccc1F [Example 59, N-{4-[2-(4-Fluoro-3-methylphenyl)imidazo[1,2-b]pyridazin-3-yl]pyridin-2-yl}nicotinamide] | 0.02 µM |
| 0.0001 µM | 0.0087 µM | Cc1cccc(-c2nc3ccc(N(C)C)nn3c2-c2ccnc(NC3CCCCC3)c2)c1 [Example 7, 3-[2-(cyclohexylamino)pyridin-4-yl]-N,N-dimethyl-2-(3-methylphenyl)imidazo[1,2-b]pyridazin-6-amine] | 0.0051 µM |
| 0.014 µM | 0.0012 µM | COc1ccc(C(=O)Nc2cc(-c3c(-c4ccc(F)c(C)c4)nc4cccnn34)ccn2)cc1 [Example 21-16, N-{4-[2-(4-fluoro-3-methylphenyl)imidazo[1,2-b]pyridazin-3-yl]pyridin-2-yl}-4-methoxybenzamide] | 0.041 µM |
| 0.018 µM | 0.0084 µM | Cc1ccc(C(=O)Nc2cc(-c3c(-c4cccc(C)c4)nc4cccnn34)ccn2)cc1 [Example 20-1, 4-methyl-N-{4-[2-(3-methylphenyl)imidazo[1,2-b]pyridazin-3-yl]pyridin-2-yl}benzamide] | 0.073 µM |
| 0.0061 µM | 0.0077 µM | CSCC(=O)Nc1cc(-c2c(-c3ccc(F)c(C)c3)nc3cccnn23)ccn1 [Example 42-6, N-{4-[2-(4-fluoro-3-methylphenyl)imidazo[1,2-b]pyridazin-3-yl]pyridin-2-yl}-2-(methylthio)acetamide] | 0.011 µM |
| 0.95 µM | 0.11 µM | Cc1cccc(-c2nc3ccc(Cl)nn3c2-c2ccnc(F)c2)c1 [Example 1, 6-Chloro-3-(2-fluoropyridin-4-yl)-2-(3-methylphenyl)imidazo[1,2-b]pyridazine] | 0.6 µM |
| 0.01 µM |  | Cc1cc(-c2nc3cccnn3c2-c2ccnc(NC(=O)c3ccncc3)c2)ccc1F [Example 42-23, N-{4-[2-(4-fluoro-3-methylphenyl)imidazo[1,2-b]pyridazin-3-yl]pyridin-2-yl}isonicotinamide] | 0.014 µM |
| 0.0038 µM | 0.014 µM | Cc1cccc(-c2nc3cccnn3c2-c2ccnc(NC(=O)c3ccc(F)cc3)c2)c1 [Example compound 20-11, 4-fluoro-N-{4-[2-(3-methylphenyl)imidazo[1,2-b]pyridazin-3-yl]pyridin-2-yl}benzamide] | 0.04 µM |
| 0.0071 µM | 0.0034 µM | Cc1cc(-c2nc3cccnn3c2-c2ccnc(NC(=O)c3ccc4ncccc4c3)c2)ccc1F [Example 42-36, N-{4-[2-(4-fluoro-3-methylphenyl)imidazo[1,2-b]pyridazin-3-yl]pyridin-2-yl}-6-quinolinecarboxamide] | 0.011 µM |
| 0.028 µM | 0.19 µM | Cc1cccc(-c2nc3ccc(Cl)nn3c2-c2ccnc(NC3CCCCC3)c2)c1 [Example 2, 4-[6-Chloro-2-(3-methylphenyl)imidazo[1,2-b]pyridazin-3-yl]-N-cyclohexylpyridin-2-amine] | 0.011 µM |
| 0.064 µM | 0.014 µM | Cc1cc(-c2nc3cccnn3c2-c2ccnc(NC(=O)NC(C)C)c2)ccc1F [Example compound 28-5, N-{4-[2-(4-fluoro-3-methylphenyl)imidazo[1,2-b]pyridazin-3-yl]pyridin-2-yl}-N′-isopropylurea] | 0.064 µM |
| 0.32 µM | 0.16 µM | Cc1cccc(-c2nc3cccnn3c2-c2ccnc(F)c2)c1 [Example 4, 3-(2-fluoropyridin-4-yl)-2-(3-methylphenyl)imidazo[1,2-b]pyridazine] | 1.52 µM |
| 0.0098 µM | 0.0026 µM | Cc1cccc(-c2nc3cccnn3c2-c2ccnc(Nc3ccccc3C)c2)c1 [Example Compound 6-10, N-(2-methylphenyl)-4-[2-(3-methylphenyl)imidazo[1,2-b]pyridazin-3-yl]pyridin-2-amine] | 0.082 µM |
| 0.0015 µM |  | Cc1ccc(C(=O)Nc2cc(-c3c(-c4ccc(F)c(C)c4)nc4cccnn34)ccn2)cn1 [Example 42-27, N-{4-[2-(4-fluoro-3-methylphenyl)imidazo[1,2-b]pyridazin-3-yl]pyridin-2-yl}-6-methylnicotinamide] | 0.016 µM |
| 0.0022 µM |  | Cc1cc(C(=O)Nc2cc(-c3c(-c4ccc(F)c(C)c4)nc4cccnn34)ccn2)ccn1 [Example 58, N-{4-[2-(4-Fluoro-3-methylphenyl)imidazo[1,2-b]pyridazin-3-yl]pyridin-2-yl}-2-methylisonicotinamide] | 0.041 µM |
